These results are taken from the Deep4Chem optical property database.

A short description of the data set: solvent given as SMILES.

With `CC(C)(C)NC(=O)c1ccc(-c2ccccc2)c2ccc3c4ccccc4c4ccccc4c3c12`, the emission maximum (in ClCCl) came out at 413 nm.

Where the note is “in ClCCl”, `CCCCC1C(=O)c2cc(Oc3ccc(C(C)(C)C)cc3)c3c4c(Oc5ccc(C(C)(C)C)cc5)cc5c6c(cc(Oc7ccc(C(C)(C)C)cc7)c(c7c(Oc8ccc(C(C)(C)C)cc8)cc(c2c37)C1=O)c64)C1=C(C5=O)c2ccc3ccccc3[n+]2[B-](F)(F)O1` (stereo unspecified) returned an emission maximum of 655 nm.

As for `CN(C)CCN(Cc1c2ccccc2c(CN(CCN(C)C)c2ccc([N+](=O)[O-])cc2[N+](=O)[O-])c2ccccc12)c1ccc([N+](=O)[O-])cc1[N+](=O)[O-]`, the emission maximum is, setting by setting: (in C1CCCCC1) 416 nm; (in C1CCOC1) 419 nm; (in CC#N) 389 nm; (in CC(C)=O) 387 nm; (in CCO) 388 nm; (in CN(C)C=O) 424 nm. In addition, the emission maximum was determined as 389 nm (in CO) and 417 nm (in ClC(Cl)Cl).

Turning to `c1ccc2c(c1)-c1ccccc1C21c2ccccc2-c2sc3c(c21)C1(c2ccccc2-c2ccccc21)c1ccccc1-3`, the emission maximum (in C1CCOC1) is reported as 403 nm.

Regarding `COc1cc(C=O)cc(-c2[nH]c(=O)n3c2-c2ccccc2C3=O)c1O`, the emission maximum reads like this: (in CC#N) 473 nm; (in CO) 490 nm; (in ClCCl) 467 nm.

`COc1ccc(/C=C/C2=CC(/C=C/c3ccc(OC)cc3)=[O+][B-](F)(F)O2)cc1`: the emission maximum is, setting by setting: (in CC#N) 549 nm; (in CC(C)=O) 534 nm; (in CCOC(C)=O) 515 nm; (in CCOCC) 497 nm; (in ClC(Cl)(Cl)Cl) 492 nm; (in ClCCl) 538 nm.

With `O=C1c2ccc3c4ccc5c6c(ccc(c7ccc(c2c37)C(=O)N1c1ccncc1)c64)C(=O)N(c1ccncc1)C5=O`, the emission maximum is 570 nm (in C1CCOC1); 572 nm (in C1COCCO1); 570 nm (in CC(C)=O); 572 nm (in CC(C)O); 570 nm (in CCCCO); 569 nm (in CCO). This compound also displayed an emission maximum (in CCOC(C)=O) of 567 nm; an emission maximum (in CN(C)C=O) of 574 nm; an emission maximum (in CO) of 569 nm; an emission maximum (in CS(C)=O) of 580 nm; an emission maximum (in ClC(Cl)(Cl)Cl) of 573 nm; an emission maximum (in ClC(Cl)Cl) of 576 nm.

In turn, `O=CC1=C(c2ccc(-c3cccs3)s2)CCC1` gave an emission maximum (in C1CCOC1) of 479 nm; an emission maximum (in CC#N) of 493 nm; an emission maximum (in CCCCCC) of 456 nm; an emission maximum (in CCO) of 514 nm; an emission maximum (in OCCOCCO) of 527 nm; an emission maximum (in c1ccncc1) of 494 nm.

Turning to `CC[NH+](CC)c1ccc(-c2nc3c(nc2-c2ccc(B(c4c(C)cc(C)cc4C)c4c(C)cc(C)cc4C)cc2)c2ccccc2n3C)cc1`, the emission maximum (in C1CCOC1) was determined as 428.33 nm.

Turning to `Cc1ccc(C)n1-c1cccc(C#N)c1`, the emission maximum reads like this: (in C1CCOC1) 481 nm; (in CCCCCC) 403 nm; (in CCCCCl) 477 nm; (in CCOCC) 444 nm; (in ClCCl) 504 nm.

On to `COC(=O)C1=C(C(=O)OC)[Se](=O)[C@]23C1=C[C@H](c1ccccc12)c1ccccc13` (stereo partly specified), for which the emission maximum (in ClCCl) came to 495 nm.

In the case of `CC(C)[Si](C#Cc1c2ccccc2c(C#Cc2c3ccccc3c(C#Cc3c4ccccc4c(C#Cc4c5ccccc5c(C#C[Si](C(C)C)(C(C)C)C(C)C)c5ccccc45)c4ccccc34)c3ccccc23)c2ccccc12)(C(C)C)C(C)C`, the emission maximum (in Cc1ccccc1) came out at 609 nm.

Turning to `c1ccc2c(c1)OP1(=NP(Oc3ccc4ccc5cccc6ccc3c4c56)(Oc3ccc4ccc5cccc6ccc3c4c56)=NP(Oc3ccc4ccc5cccc6ccc3c4c56)(Oc3ccc4ccc5cccc6ccc3c4c56)=N1)Oc1ccccc1-2`, the emission maximum (in ClCCl) is 457 nm.

Where the note is “in O”, `COc1cc(/C=C/C(=O)O)ccc1O` registered an emission maximum of 413 nm.

On to `c1cc2ccc1-c1ccc(cc1)-c1ccc([se]1)-c1ccc(cc1)-c1ccc(cc1)-c1ccc([se]1)-c1ccc(cc1)-c1ccc(cc1)-c1ccc-2[se]1`, for which the emission maximum (in C1CCOC1) is recorded as 560 nm.

For the compound `Cc1c(C2=[N+]3C(=Cc4c(C)c5ccccc5n4[B-]3(F)F)c3ccccc32)[nH]c2ccccc12`, the emission maximum (in C1CCOC1) is reported as 646 nm; the emission maximum (in CC#N) was 637 nm; the emission maximum (in CCCCCC) was 644 nm; the emission maximum (in CO) came to 643 nm; the emission maximum (in Cc1ccccc1) was 656 nm; the emission maximum (in ClCCl) worked out at 648 nm.

As for `O=S(=O)(c1ccc(-c2ccc(-c3nc4c5ccccc5c5ccccc5c4n3-c3ccccc3)cc2)cc1)c1ccc(-c2ccc(-c3nc4c5ccccc5c5ccccc5c4n3-c3ccccc3)cc2)cc1`, the emission maximum worked out at 451 nm (in C1CCOC1); 479 nm (in CC#N); 468 nm (in CC(C)=O); 437 nm (in CC(C)OC(C)C); 404 nm (in CCCCCC); 420 nm (in CCCCOCCCC). Moreover, the emission maximum by setting is: (in CCN(CC)CC) 413 nm; (in CCOC(C)=O) 448 nm; (in CCOCC) 438 nm; (in CN(C)C=O) 478 nm; (in ClC(Cl)Cl) 450 nm; (in ClCCl) 461 nm. Where the note is “in c1ccc2c(c1)c1ccccc1n2-c1ccc(-c2ccc(-n3c4ccccc4c4ccccc43)cc2)cc1”, this compound showed an emission maximum of 443 nm.

Compound `FC(F)(F)c1ccc(-c2ccc(-c3cc(-c4ccccn4)nc(-c4ccccn4)c3)cc2)cc1` gave an emission maximum (in ClCCl) of 359 nm.

For the compound `c1ccc2cc3cnccc3cc2c1`, the emission maximum (in CCO) turned out to be 426.44 nm.

For `Cc1ccc(C2=C3C=CC(Cl)=[N+]3[B-](F)(F)n3c(Cl)ccc32)cc1`, the emission maximum stood at 525 nm (in C1CCCCC1); 523 nm (in C1CCOC1); 520 nm (in CC#N); 521 nm (in CCOC(C)=O); 519 nm (in CO); 529 nm (in Cc1ccccc1). Besides, the emission maximum (in ClC(Cl)Cl) is 526 nm.

Take `Cc1ccc2c(c1)C(=O)c1ccncc1-2`: the emission maximum reads like this: (in CC#N) 536.75 nm; (in CCCCCC) 487.83 nm.

Consider `CCCCN1c2ccccc2Sc2cc(/C=C/C3=Nc4ccc5ccccc5c4C3(C)C)ccc21`, for which the emission maximum runs as follows: (in C1CCCCC1) 517 nm; (in C1CCOC1) 571 nm; (in C1COCCO1) 562 nm; (in CC#N) 610 nm; (in CC(C)=O) 598 nm; (in CC(C)O) 602 nm. Further, the emission maximum reads like this: (in CCOC(C)=O) 564 nm; (in CCOCC) 546 nm; (in CO) 635 nm; (in CS(C)=O) 612 nm; (in Cc1ccccc1) 550 nm; (in ClCCl) 595 nm.

Consider `CCOCCOCCOC(=O)/C=C/C1=CC2=C(c3c(C)cc(C)cc3C)c3cc(/C=C/C(=O)OCCOCCOCC)cn3[B-](F)(F)[N+]2=C1`, for which, for the setting “in ClCCl”, the emission maximum is recorded as 606 nm.

`CC(C)[Si](C#Cc1ccc(C#C[Si](C(C)C)(C(C)C)C(C)C)c2nc3c(nc12)C1c2ccccc2C3c2ccccc21)(C(C)C)C(C)C` returned an emission maximum (in CCCCCC) of 404 nm.

Turning to `C[Si]1(c2ccccc2)C(c2ccc3c4ccccc4n(-c4ccccc4)c3c2)=C(c2ccccc2)C(c2ccccc2)=C1c1ccc2c3ccccc3n(-c3ccccc3)c2c1`, for the setting “in C1CCOC1”, the emission maximum was 525 nm.

Where the note is “in CO”, `C#CCOc1ccc(/C=C/C2=[N+]3C(=C(c4ccc(N(CC)CC)cc4)c4c(C)cc(/C=C/c5ccc(OCC(=O)OC)cc5)n4[B-]3(F)F)C(C)=C2)cc1` had an emission maximum of 655 nm.

In the case of `CC(=O)Nc1ccc2c(c1)c(=O)c1cc(NC(C)=O)ccc1n2CCCCCC(=O)O`, the emission maximum (in O) turned out to be 463 nm.

Where the note is “in ClCCl”, `CC1=CC(C)=[N+]2C1=C(c1c(-c3ccccn3)nc3ccccn13)c1c(C)cc(C)n1[B-]2(F)F` registered an emission maximum of 536 nm.

Regarding `Cc1cc(-c2nc(-c3ccccc3)nc(-c3ccccc3)n2)ccc1N1c2ccccc2[Si](c2ccccc2)(c2ccccc2)c2ccccc21`, the emission maximum is given as 459 nm (in Cc1ccccc1) and 460 nm (in O=P(c1ccccc1)(c1ccccc1)c1ccccc1Oc1ccccc1P(=O)(c1ccccc1)c1ccccc1).

Take `COc1ccc(-n2nc(C(=O)N3CCCC3)c(N3CCCC3)n2)cc1`: the emission maximum is on record as 412 nm (in CC#N); 405 nm (in CCCCCC); 410 nm (in CCO); 396 nm (in CN(C)C=O); 411 nm (in ClC(Cl)Cl).

Compound `COc1ccc(-c2c3cc4ccccc4cc3c(C#Cc3ccccc3)c3cc4cc(C)sc4cc23)cc1` gave an emission maximum (in ClCCl) of 620 nm.

On to `Cc1ccc(-c2cc3ccccc3oc2=O)cc1`, for which the emission maximum stood at 410 nm (in C1CCOC1), 425 nm (in CCCCCC), 408 nm (in CCO) and 409 nm (in CS(C)=O).

Regarding `O=c1oc2ccccc2cc1-c1nc2ccccc2o1`, the emission maximum (in C1CCOC1) was determined as 444 nm; the emission maximum (in C1COCCO1) is reported as 443 nm; the emission maximum (in CC1CCCCC1) is 438 nm; the emission maximum (in CC#N) turned out to be 443 nm; the emission maximum (in CC(C)=O) is listed as 444 nm; the emission maximum (in CC(C)CO) came out at 445 nm. Moreover, the emission maximum is 444 nm (in CC(C)O); 443 nm (in CCOC(C)=O); 445 nm (in CN(C)C=O); 440 nm (in CO); 453 nm (in CS(C)=O); 445 nm (in Cc1ccccc1). The emission maximum by setting is: (in ClC(Cl)(Cl)Cl) 444 nm; (in ClC(Cl)Cl) 443 nm; (in OCCO) 447 nm.

Take `O=c1c2cc(F)c(O)cc2n(-c2ccccc2)c2cc(O)c(F)cc12`: where the note is “in CCO”, the emission maximum amounted to 454 nm.

In turn, `F[B-]1(F)n2c(ccc2-c2cccs2)C(C(F)(F)F)=C2C=CC(c3cccs3)=[N+]21` yielded an emission maximum (in CCCCCC) of 674 nm.
